Measurements taken from patent publication US8962810B2, “Macrocyclic heterocyclic compound for inhibiting hepatitis C virus and preparation and use thereof” (AB Pharma Ltd., priority 2011, dated 2015).

molecular target: T1, HCV Protease (HCV NS3-4A) (Hepatitis C virus genotype 1a, UniProt P27958); test: HCV Protease (HCV NS3-4A) anti-activity assay, fluorescence quenching (FRET); format: biochemical
T1 construct: HCV Protease: HCV NS3-4A, self-prepared; made in house
Method: Method of HCV Protease (HCV NS3-4A) Anti-Activity Assay:
HCV Protease (HCV NS3/4A) anti-activity was measured by an inter fluorescence quenching system. EDANS group and DABCYL group were bonded on each side of a peptide. When protein cleavage started, fluorescence quenching of EDANS by DABCYL was detected. We used a high throughput screening model for HCV NS3/4A protease inhibitors, the tested drugs were prepared with 5 different concentrations, positive control and negative control were set in the same time. In the optimized reaction system, fluorescence were determined at ex=355, em=520 by a Polarstar fluorescence detector. Calculate the inhibition rate of each concentration; calculate the half maximal inhibitory concentration (IC50) with the method of Reed-Muench.
Materials: HCV Protease: HCV NS3-4A, self-prepared, stored at −70. HCV Protease substrate (FRET-S): Ac-Asp-Glu-Asp(EDANS)-Glu-Glu-Abu-ψ-[COO]-Ala-Ser-Lys-(DABCYL)-NH2, supplied by AnaSpec USA, prepared of 100 μM by DMSO, distributed and stored at −20 without light. Buffer solution: 30 mM NaCl, 5 mM CaCl2, 10 mM DTT, 50 mM Tris (pH7.8).
Instrument: fluorescence detector Polarstar from Germany Company BMG
Preparation and operation: preparation of 10 mg/mL by DMSO, dilute of 10000, 2000, 400, 80, 16 ng/mL as tested concentrations by buffer solutions, adding 20 μL into each well, the total reaction system is 200 μL, to make the final concentrations of 1000, 200, 40, 8, 1.6 ng/mL. Add 140 μL buffer solution, 20 μL drug solution, 20 μL HCV protease, and 20 μL FRET-S substrate with final concentration of 0.25 μM into 96-well fluorescence microtiterplate, the reaction started at 37, set control wells of protease-substrate reaction and of isolate substrate and isolate protease, fluorescence signals were detected by fluorescence detector (ex=355,em=520). Calculate the inhibition rates of samples for each concentration by comparison of fluorescence value of sample in each well and the fluorescence control value of enzyme, calculate the half maximal inhibitory concentration (IC50) of samples to HCV protease with the method of Reed-Muench.
THF and Et2O were distilled from sodium metal and benzophenone. DCM, pentane and hexane were distilled form calcium hydride. Special raw materials and intermediates in the invention were supplied by Zannan SciTech Co. for ordered processing, Ltd. in Shanghai, others reagents were purchased from Shanghai reagent company, Aldrich, Acros etc. If intermediates or products of synthesis were not enough for the next step of reaction, the synthesis shall be repeated until it is sufficient. The HCV protease (HCV NS3-4A) inhibitory activity assays in the present invention were performed by relevant cooperation service units of China Institutes for Biological Science in Beijing.

T1 sequence (P27958 1658-1711): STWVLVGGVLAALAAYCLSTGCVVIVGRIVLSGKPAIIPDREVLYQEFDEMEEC
T1 sequence (P27958 1027-1657): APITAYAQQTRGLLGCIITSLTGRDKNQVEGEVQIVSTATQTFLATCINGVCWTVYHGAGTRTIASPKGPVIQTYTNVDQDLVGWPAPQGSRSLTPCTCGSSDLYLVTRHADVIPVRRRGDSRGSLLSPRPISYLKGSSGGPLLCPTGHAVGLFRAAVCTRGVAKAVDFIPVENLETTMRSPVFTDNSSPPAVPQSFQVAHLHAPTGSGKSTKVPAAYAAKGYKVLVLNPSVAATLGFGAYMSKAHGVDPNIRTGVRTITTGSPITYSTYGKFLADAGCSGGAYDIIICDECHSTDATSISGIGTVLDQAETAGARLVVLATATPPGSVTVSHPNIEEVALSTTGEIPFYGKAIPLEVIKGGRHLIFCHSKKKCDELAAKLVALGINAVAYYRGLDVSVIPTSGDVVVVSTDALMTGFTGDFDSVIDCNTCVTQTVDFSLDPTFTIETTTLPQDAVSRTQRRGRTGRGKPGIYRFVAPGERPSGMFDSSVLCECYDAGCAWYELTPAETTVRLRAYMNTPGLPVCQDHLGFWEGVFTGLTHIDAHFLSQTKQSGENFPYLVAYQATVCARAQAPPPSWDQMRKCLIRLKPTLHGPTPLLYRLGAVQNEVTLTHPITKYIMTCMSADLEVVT

| Structure (SMILES) | IC50 [nM] |
| --- | --- |
| CC[C@H]1C[C@@]1(NC(=O)C1C[C@@H]2CN1C(=O)[C@H](C(C)(C)C)NC(=O)OCC1(CCCCCOc3cccc4c3CN(C4)C(=O)O2)CC1)C(=O)NS(=O)(=O)C1CC1 (stereo partly shown) [Compound 15a] | 0.1 to 5 |
| C=CC1CC1(NC(=O)C1CC2CN1C(=O)C(C(C)(C)C)NC(=O)OCCCCCCOc1cccc3c1CN(C3)C(=O)O2)C(=O)NS(=O)(=O)C1CC1 (stereo not shown) [Compound 15aa] | 0.1 to 5 |
| C=C[C@H]1C[C@@]1(NC(=O)C1C[C@@H]2CN1C(=O)[C@H](C(C)(C)C)NC(=O)OCCCCCCCOc1cccc3c1CN(C3)C(=O)O2)C(=O)NS(=O)(=O)C1CC1 (stereo partly shown) [Compound 15ab] | 0.1 to 5 |
| C=CC1CC1(NC(=O)C1CC2CN1C(=O)C(C(C)(C)C)NC(=O)OCCCCCCCCOc1cccc3c1CN(C3)C(=O)O2)C(=O)NS(=O)(=O)C1CC1 (stereo not shown) [Compound 15ac] | 0.1 to 5 |
| C=C[C@H]1C[C@@]1(NC(=O)C1C[C@@H]2CN1C(=O)[C@H](C(C)(C)C)NC(=O)OCC/C=C/COc1cccc3c1CN(C3)C(=O)O2)C(=O)NS(=O)(=O)C1CC1 (stereo partly shown) [Compound 15ad] | 0.1 to 5 |
| CC[C@H]1C[C@@]1(NC(=O)C1C[C@@H]2CN1C(=O)[C@H](C(C)(C)C)NC(=O)OCC/C=C/COc1cccc3c1CN(C3)C(=O)O2)C(=O)NS(=O)(=O)C1CC1 (stereo partly shown) [Compound 15ae] | 0.1 to 5 |
| C=C[C@H]1C[C@@]1(NC(=O)C1C[C@@H]2CN1C(=O)[C@H](C(C)(C)C)NC(=O)OCCCCCOc1cccc3c1CN(C3)C(=O)O2)C(=O)NS(=O)(=O)C1CC1 (stereo partly shown) [Compound 15af] | 0.1 to 5 |
| CC[C@H]1C[C@@]1(NC(=O)C1C[C@@H]2CN1C(=O)[C@H](C(C)(C)C)NC(=O)OCCCCCOc1cccc3c1CN(C3)C(=O)O2)C(=O)NS(=O)(=O)C1CC1 (stereo partly shown) [Compound 15ag] | 0.1 to 5 |
| C=C[C@H]1C[C@@]1(NC(=O)C1C[C@@H]2CN1C(=O)[C@H](C(C)(C)C)NC(=O)OCC(C)(C)OC/C=C/COc1cccc3c1CN(C3)C(=O)O2)C(=O)NS(=O)(=O)C1CC1 (stereo partly shown) [Compound 15ah] | 0.1 to 5 |
| CC[C@H]1C[C@@]1(NC(=O)C1C[C@@H]2CN1C(=O)[C@H](C(C)(C)C)NC(=O)OCC(C)(C)OC/C=C/COc1cccc3c1CN(C3)C(=O)O2)C(=O)NS(=O)(=O)C1CC1 (stereo partly shown) [Compound 15aj] | 0.1 to 5 |
| C=C[C@H]1C[C@@]1(NC(=O)C1C[C@@H]2CN1C(=O)[C@H](C(C)(C)C)NC(=O)OCC(C)(C)OCCCCOc1cccc3c1CN(C3)C(=O)O2)C(=O)NS(=O)(=O)C1CC1 (stereo partly shown) [Compound 15ak] | 0.1 to 5 |
| CC[C@H]1C[C@@]1(NC(=O)C1C[C@@H]2CN1C(=O)[C@H](C(C)(C)C)NC(=O)OCC(C)(C)OCCCCOc1cccc3c1CN(C3)C(=O)O2)C(=O)NS(=O)(=O)C1CC1 (stereo partly shown) [Compound 15am] | 0.1 to 5 |
| C=C[C@H]1C[C@@]1(NC(=O)C1C[C@@H]2CN1C(=O)[C@H](C(C)(C)C)NC(=O)OCCC/C=C/CCOc1cccc3c1CN(C3)C(=O)O2)C(=O)NS(=O)(=O)C1CC1 (stereo partly shown) [Compound 15an] | 0.1 to 5 |
| CC[C@H]1C[C@@]1(NC(=O)C1C[C@@H]2CN1C(=O)[C@H](C(C)(C)C)NC(=O)OCCC/C=C/CCOc1cccc3c1CN(C3)C(=O)O2)C(=O)NS(=O)(=O)C1CC1 (stereo partly shown) [Compound 15ap] | 0.1 to 5 |
| C=C[C@H]1C[C@@]1(NC(=O)C1C[C@@H]2CN1C(=O)[C@H](C(C)(C)C)NC(=O)OCC(C)(C)C/C=C/COc1cccc3c1CN(C3)C(=O)O2)C(=O)NS(=O)(=O)C1CC1 (stereo partly shown) [Compound 15aq] | 0.1 to 5 |
| CC[C@H]1C[C@@]1(NC(=O)C1C[C@@H]2CN1C(=O)[C@H](C(C)(C)C)NC(=O)OCC(C)(C)C/C=C/COc1cccc3c1CN(C3)C(=O)O2)C(=O)NS(=O)(=O)C1CC1 (stereo partly shown) [Compound 15ar] | 0.1 to 5 |
| C=C[C@H]1C[C@@]1(NC(=O)C1C[C@@H]2CN1C(=O)[C@H](C(C)(C)C)NC(=O)OCC(C)(C)CCCCOc1cccc3c1CN(C3)C(=O)O2)C(=O)NS(=O)(=O)C1CC1 (stereo partly shown) [Compound 15as] | 0.1 to 5 |
| C=CC1CC1(NC(=O)C1CC2CN1C(=O)C(C(C)(C)C)NC(=O)OCC(C)(C)CCCCCOc1cccc3c1CN(C3)C(=O)O2)C(=O)NS(=O)(=O)C1CC1 (stereo not shown) [Compound 15at] | 0.1 to 5 |
| C=C[C@H]1C[C@@]1(NC(=O)C1C[C@@H]2CN1C(=O)[C@H](C(C)(C)C)NC(=O)OCC(C)(C)CC/C=C/COc1cccc3c1CN(C3)C(=O)O2)C(=O)NS(=O)(=O)C1CC1 (stereo partly shown) [Compound 15au] | 0.1 to 5 |
| CC[C@H]1C[C@@]1(NC(=O)C1C[C@@H]2CN1C(=O)[C@H](C(C)(C)C)NC(=O)OCC(C)(C)CCCCCOCc1cccc3c1CN(C3)C(=O)O2)C(=O)NS(=O)(=O)C1CC1 (stereo partly shown) [Compound 15av] | 5.1 to 50 |
| CC[C@H]1C[C@@]1(NC(=O)C1C[C@@H]2CN1C(=O)[C@H](C(C)(C)C)NC(=O)OCCCCCCOCc1cccc3c1CN(C3)C(=O)O2)C(=O)NS(=O)(=O)C1CC1 (stereo partly shown) [Compound 15aw] | 5.1 to 50 |
| CC[C@H]1C[C@@]1(NC(=O)C1C[C@@H]2CN1C(=O)[C@H](C(C)(C)C)NC(=O)OCC(C)(C)CCCCOc1ccc(Cl)c3c1CN(C3)C(=O)O2)C(=O)NS(=O)(=O)C1CC1 (stereo partly shown) [Compound 15ax] | 0.1 to 5 |
| CC[C@H]1C[C@@]1(NC(=O)C1C[C@@H]2CN1C(=O)[C@H](C(C)(C)C)NC(=O)OCC1(CC/C=C/COc3cccc4c3CN(C4)C(=O)O2)CC1)C(=O)NS(=O)(=O)C1CC1 (stereo partly shown) [Compound 15b] | 0.1 to 5 |
| CC[C@H]1C[C@@]1(NC(=O)C1C[C@@H]2CN1C(=O)[C@H](C(C)(C)C)NC(=O)OCC(F)(F)CCCCOc1cccc3c1CN(C3)C(=O)O2)C(=O)NS(=O)(=O)C1CC1 (stereo partly shown) [Compound 15ba] | 0.1 to 5 |
| CC[C@H]1C[C@@]1(NC(=O)C1C[C@@H]2CN1C(=O)[C@H](C(C)(C)C)NC(=O)OCCCCCCNC(=O)c1cccc3c1CN(C3)C(=O)O2)C(=O)NS(=O)(=O)C1CC1 (stereo partly shown) [Compound 15bb] | 5.1 to 50 |

Next, values leading:

| IC50 [nM] | Structure (SMILES) |
| --- | --- |
| 51 to 300 | CC[C@H]1C[C@@]1(NC(=O)C1C[C@@H]2CN1C(=O)[C@H](C(C)(C)C)NC(=O)OCC(C)(C)CCCCNC(=O)c1cccc3c1CN(C3)C(=O)O2)C(=O)NS(=O)(=O)C1CC1 (stereo partly shown) [Compound 15bc] |
| 51 to 300 | CCC1CC1(NC(=O)C1CC2CN1C(=O)C(C(C)(C)C)NC(=O)OCC(C)(C)CCCCCNC(=O)c1cccc3c1CN(C3)C(=O)O2)C(=O)NS(=O)(=O)C1CC1 (stereo not shown) [Compound 15bd] |
| 0.1 to 5 | CC[C@H]1C[C@@]1(NC(=O)C1C[C@@H]2CN1C(=O)[C@H](C(C)(C)C)NC(=O)OCCCCCCCOc1ccc3c(c1)CN(C3)C(=O)O2)C(=O)NS(=O)(=O)C1CC1 (stereo partly shown) [Compound 15be] |
| 0.1 to 5 | C=C[C@H]1C[C@@]1(NC(=O)C1C[C@@H]2CN1C(=O)[C@H](C(C)(C)C)NC(=O)OCCCCCCCOc1ccc3c(c1)CN(C3)C(=O)O2)C(=O)NS(=O)(=O)C1CC1 (stereo partly shown) [Compound 15bf] |
| 0.1 to 5 | CC[C@H]1C[C@@]1(NC(=O)C1C[C@@H]2CN1C(=O)[C@H](C(C)(C)C)NC(=O)OCCCC/C=C/COc1ccc3c(c1)CN(C3)C(=O)O2)C(=O)NS(=O)(=O)C1CC1 (stereo partly shown) [Compound 15bg] |
| 0.1 to 5 | C=C[C@H]1C[C@@]1(NC(=O)C1C[C@@H]2CN1C(=O)[C@H](C(C)(C)C)NC(=O)OCCCC/C=C/COc1ccc3c(c1)CN(C3)C(=O)O2)C(=O)NS(=O)(=O)C1CC1 (stereo partly shown) [Compound 15bh] |
| 0.1 to 5 | C=CC1CC1(NC(=O)C1CC2CN1C(=O)C(C(C)(C)C)NC(=O)OCCCC=CCOc1ccc3c(c1)CN(C3)C(=O)O2)C(=O)NS(=O)(=O)C1CC1 (stereo not shown) [Compound 15bj] |
| 5.1 to 50 | CCC1CC1(NC(=O)C1CC2CN1C(=O)C(C(C)(C)C)NC(=O)OCCCC=CCOc1ccc3c(c1)CN(C3)C(=O)O2)C(=O)NS(=O)(=O)C1CC1 (stereo not shown) [Compound 15bk] |
| 51 to 300 | C=C[C@H]1C[C@@]1(NC(=O)C1C[C@@H]2CN1C(=O)[C@H](C(C)(C)C)NC(=O)OCC/C=C/COc1ccc3c(c1)CN(C3)C(=O)O2)C(=O)NS(=O)(=O)C1CC1 (stereo partly shown) [Compound 15bm] |
| 0.1 to 5 | C=C[C@H]1C[C@@]1(NC(=O)C1C[C@@H]2CN1C(=O)[C@H](C(C)(C)C)NC(=O)OCC(C)(C)CCCCCOc1ccc3c(c1)CN(C3)C(=O)O2)C(=O)NS(=O)(=O)C1CC1 (stereo partly shown) [Compound 15bn] |
| 0.1 to 5 | CC[C@H]1C[C@@]1(NC(=O)C1C[C@@H]2CN1C(=O)[C@H](C(C)(C)C)NC(=O)OCC(C)(C)CCCCCOc1ccc3c(c1)CN(C3)C(=O)O2)C(=O)NS(=O)(=O)C1CC1 (stereo partly shown) [Compound 15bp] |
| 51 to 300 | CC[C@H]1C[C@@]1(NC(=O)C1C[C@@H]2CN1C(=O)[C@H](C(C)(C)C)NC(=O)OCCCCCCOC(=O)c1ccc3c(c1)CN(C3)C(=O)O2)C(=O)NS(=O)(=O)C1CC1 (stereo partly shown) [Compound 15bq] |
